Laboratory results published in US10330673B2, “Fluorescent chemical sensor for biological amines” (The Curators of the University of Missouri, priority 2013, dated 2019).

Assays:
[1] = sensor of U.S. Pat. No. 7,977,120 B2; quenched by catechol group; cited from earlier work
[2] = Fluorescence titration of sensor with norepinephrine; format: binding; conditions: Table 2, analyte norepinephrine; for Ka: pH 5.0, 37° C.
Protocol: (§1) Fluorescence spectra were recorded on a Shimadzu RF-5301 PC spectrofluorometer at 37° C. A 1 mg/mL stock solution of I-2 in DMSO was prepared. A stock solution of I-2 in buffer (1×10^−5 M, 25 mM HEPES, 50 mM Na2S2O3, pH=5.0) was prepared. Norepinephrine, dopamine, epinephrine, and glutamate stock solutions were prepared by separately dissolving the analytes at the concentration to be used in the titration with the buffered stock solution of I-2 (thus avoiding dilution of I-2 during the experiment). I-2 was titrated with aliquots of analyte solution. The sensor was excited at 488 nm with slit widths of 5 nm.
(§2) Fluorescence spectra were recorded on a Shimadzu RF-5301 PC spectrofluorometer at 37° C. A separate 1 mg/mL stock solution of each coumarin-3-aldehyde derivative in DMSO was prepared. An aqueous stock solution of each derivative (10 μM) in buffer (25 mM HEPES, 50 mM Na2S2O3, pH=5.0) was prepared. Norepinephrine, dopamine, glutamate, and epinephrine stock solutions were prepared by separately dissolving the solid analytes at the concentration to be used in the titration with the buffered stock solutions described above and thus, avoiding dilution of the sensor during the experiment. The benzene-based NS521 derivatives were excited at 488 nm. The thiophene-based derivatives were excited at 515 nm.

[3] = Fluorescence titration of sensor with dopamine; format: binding; conditions: Table 2, analyte dopamine; for Ka: pH 5.0, 37° C.
Protocol: as §1, §2

[4] = Fluorescence titration of sensor with glutamate; format: binding; conditions: for F.E. / Ka: Table 2, analyte glutamate; for Ka: pH 5.0, 37° C.
Protocol: as §1, §2

[5] = Solubility in buffer for spectroscopic studies; format: physicochemical; conditions: 25 mM HEPES, 50 mM Na2S2O3, pH 5.0; DMSO cosolvent required
Protocol: Steady-state fluorescence spectroscopic studies were performed using a Horiba Scientific Fluorolog-3 Model FL3C-111 spectrofluorometer and data was collected and analyzed using HJY FluorEssence™ 3.5.1.20 software package. UV-visible spectra were obtained on a Varian Cary 1E UV-visible spectrophotometer. A stock solution of each benzene- or thiophene-based coumarin-3-aldehyde derivative (1 μM) in buffer (25 mM HEPES, 50 mM Na2S2O3, pH=5.0) was prepared. Each solution contained 1% (v/v) DMSO as a cosolvent except as noted. The slit width was 2 nm for both excitation and emission. The bound benzene- and thiophene-coumarin-3-aldehyde derivatives contained 500 mM glutamate (pH=5.0).

[6] = test system: norepinephrine-enriched chromaffin cells; assay: Live-cell confocal imaging with NS539, norepinephrine-enriched cells; format: cell-based, bovine; conditions: 10 μM
Protocol: (§3) Norepinephrine- and epinephrine-secreting chromaffin cells were isolated from bovine adrenal glands, separately incubated with NS539 (2b, 10 μM), and imaged using confocal fluorescence microscopy. The live cells were imaged at 458 nm which would excite any potential unbound sensor and at 514 nm which would excite the bound sensor. […] The ratio of the mean corrected total cell fluorescence intensity of norepinephrine- over epinephrine-enriched cells was approximately 27-fold (FIG. 19G).
(§4) Chromaffin cells were prepared as previously described. Approximately 3 mL of each culture media containing suspended epinephrine- and norepinephrine-enriched cells was centrifuged at 1,000 rpm for 5 min. The pellets were suspended in 2 mL Dulbecco's Modified Eagle Medium (DMEM). NS539 was added (10 μM final concentration) and each cell suspension containing sensor incubated at 37° C. for 30 min. The cells were centrifuged, the supernatant removed, and washed twice with PBS buffer. Next, the cells were taken up into 6 mL standard cell bath solution and plated onto No. 1.5 γ-irradiated poly-D-lysine coated 35 mm glass-bottom dishes (MatTek Corporation). The cells incubated on the dishes 37° C. with 5% CO2 for 1 hr prior to imaging to promote adhesion. Live cell imaging studies were performed using a Zeiss LSM 510 META laser scanning confocal microscope (Carl Zeiss Microscopy, LLC) equipped with a C-Apochromat 63x/1.2 water immersion objective lens (Carl Zeiss Microscopy, LLC). The excitation wavelengths were 458 nm and 514 nm (pixel time: 6.4 μs, detector gain: 845, amplifier gain: 1.00, amplifier offset: −0.05, pinhole: 328 μm). Image acquisition was performed using Zeiss AIM 4.2 software package (Carl Zeiss Microscopy, LLC). To compare the fluorescence intensities of the norepinephrine- vs. the epinephrine-enriched cells, the mean corrected total cell fluorescence intensities were obtained using ImageJ (National Institute of Health).

[7] = test system: epinephrine-enriched chromaffin cells; assay: Live-cell confocal imaging with NS539, epinephrine-enriched cells; format: cell-based, bovine; conditions: 10 μM
Protocol: as §3, §4

[8] = 1.0 μM in water (pH 7); fluorescence standard; cited from earlier work
[9] = benzene-based compounds I, excited at 488 nm
[10] = thiophene-based compounds II, excited at 515 nm
[11] = excitation at 514 nm (bound sensor)
[12] = ± standard deviation (n=6), 535-590 nm bandpass filter

Row | Compound | F.E. [2, 9] | Ka [2, 9] | F.E. [3, 9] | Ka [3, 9] | F.E. [4, 9] | Ka [4, 9] | also measured
1 | CCN(CC)c1ccc2c(CCCCCN(C)Cc3ccccc3B(O)O)c(C=O)c(=O)oc2c1 ['120 sensor] |  |  |  |  |  |  | mode of fluorescence response [1]: turn-off mode
2 | CCN(CC)c1ccc2c(-c3ccccc3)c(C=O)c(=O)oc2c1 [Compound I-1] | 6.62 | 68.68 M⁻¹ | 3.23 | 68.07 M⁻¹ | 10.45 | 9.43 M⁻¹ | 
3 | CCN(CC)c1ccc2c(-c3ccc(OC)c(OC)c3)c(C=O)c(=O)oc2c1 [Compound I-3] | 4.11 | 107.17 M⁻¹ | 2.69 | 177.46 M⁻¹ | 6.56 | 10.21 M⁻¹ | 
4 | CCN(CC)c1ccc2c(-c3cc(OC)c(OC)c(OC)c3)c(C=O)c(=O)oc2c1 [Compound I-4] | 2.56 | 159.08 M⁻¹ | 1.62 | 205.13 M⁻¹ | 5.57 | 10.25 M⁻¹ | selectivity of fluorescent response for glutamate over dopamine and norepinephrine ([4]; series 1 sensors, in words): best glutamate-selective sensor
5 | CCN(CC)c1ccc2c(-c3cccc(C)c3)c(C=O)c(=O)oc2c1 [Compound I-5] | 6.59 | 68.40 M⁻¹ | 3.17 | 74.13 M⁻¹ | 9.97 | 9.17 M⁻¹ | 
6 | CCN(CC)c1ccc2c(-c3ccc(OC)c(C)c3)c(C=O)c(=O)oc2c1 [Compound I-6] | 3.89 | 135.98 M⁻¹ | 2.41 | 192.05 M⁻¹ | 6.36 | 10.25 M⁻¹ | 
7 | CCOC(=O)c1ccc(-c2c(C=O)c(=O)oc3cc(N(CC)CC)ccc23)cc1 [Compound I-7] | 1.79 | 81.50 M⁻¹ | 1.13 | 107.45 M⁻¹ | 4.68 | 6.95 M⁻¹ | solubility in buffer [5]: solubility issues
8 | CCN(CC)c1ccc2c(-c3ccc(OC)c(F)c3)c(C=O)c(=O)oc2c1 [Compound I-8] | 6.36 | 70.18 M⁻¹ | 3.06 | 92.94 M⁻¹ | 9.31 | 8.96 M⁻¹ | 
9 | CCN(CC)c1ccc2c(-c3ccc(-c4ccccc4)cc3)c(C=O)c(=O)oc2c1 [Compound I-9] | 2.57 | 148.79 M⁻¹ | 1.62 | 203.29 M⁻¹ | 6.22 | 13.84 M⁻¹ | solubility in buffer [5]: solubility issues
10 | CCN(CC)c1ccc2c(-c3cccc4ccccc34)c(C=O)c(=O)oc2c1 [Compound I-10] | 4.30 | 103.56 M⁻¹ | 2.86 | 170.10 M⁻¹ | 6.81 | 10.08 M⁻¹ | 
11 | CCN(CC)c1ccc2c(-c3ccc(SC)cc3)c(C=O)c(=O)oc2c1 [Compound I-11] | 6.46 | 68.82 M⁻¹ | 3.10 | 87.11 M⁻¹ | 9.76 | 8.40 M⁻¹ | 
12 | CCN(CC)c1ccc2c(-c3cccs3)c(C=O)c(=O)oc2c1 [II-1] |  |  |  |  |  |  | F.E. [2, 10]: 47.95; Ka [2, 10]: 65.15 M⁻¹; F.E. [3, 10]: 25.42; Ka [3, 10]: 43.55 M⁻¹; F.E. [4, 10]: 57.17; Ka [4, 10]: 7.32 M⁻¹; ratio of mean corrected total cell fluorescence intensity of norepinephrine- over epinephrine-enriched cells [6]: approximately 27 fold; cell fluorescence, confocal microscopy [6, 11]: strong punctate fluorescence; mean corrected total cell fluorescence intensity [6, 12]: 51.0±2.6; cell fluorescence, confocal microscopy ([6]; λex = 458 nm (unbound sensor)): no measurable fluorescence response; cell fluorescence, confocal microscopy ([7]; excitation at 458 nm (unbound sensor)): no fluorescence; cell fluorescence, confocal microscopy [7, 11]: marginal fluorescence response; mean corrected total cell fluorescence intensity [7, 12]: 1.86±0.98
13 | CCN(CC)c1ccc2c(-c3ccc(C)s3)c(C=O)c(=O)oc2c1 [II-2] |  |  |  |  |  |  | F.E. [2, 10]: 32.35; Ka [2, 10]: 58.72 M⁻¹; F.E. [3, 10]: 22.18; Ka [3, 10]: 54.61 M⁻¹; F.E. [4, 10]: 47.67; Ka [4, 10]: 6.11 M⁻¹
14 | CCN(CC)c1ccc2c(-c3cc(C)cs3)c(C=O)c(=O)oc2c1 [II-3] |  |  |  |  |  |  | F.E. [2, 10]: 38.35; Ka [2, 10]: 63.65 M⁻¹; F.E. [3, 10]: 23.41; Ka [3, 10]: 51.10 M⁻¹; F.E. [4, 10]: 51.15; Ka [4, 10]: 7.40 M⁻¹
15 | CCN(CC)c1ccc2c(-c3ccc(Cl)s3)c(C=O)c(=O)oc2c1 [II-4] |  |  |  |  |  |  | F.E. [2, 10]: 20.78; Ka [2, 10]: 69.25 M⁻¹; F.E. [3, 10]: 12.39; Ka [3, 10]: 83.96 M⁻¹; F.E. [4, 10]: 33.96; Ka [4, 10]: 5.90 M⁻¹
16 | CCN(CC)c1ccc2c(-c3cc4ccccc4s3)c(C=O)c(=O)oc2c1 [II-5] |  |  |  |  |  |  | F.E. [2, 10]: 16.62; Ka [2, 10]: 49.65 M⁻¹; F.E. [3, 10]: 9.53; Ka [3, 10]: 49.26 M⁻¹; F.E. [4, 10]: 29.65; Ka [4, 10]: 5.25 M⁻¹
17 | CCN(CC)c1ccc2c(-c3ccccc3C(=O)O)c3ccc(=[N+](CC)CC)cc-3oc2c1.[Cl-] [rhodamine B] |  |  |  |  |  |  | absolute Φfl [8]: 0.31
